Source: US10280152B2, “Imaging of glycogen synthase kinase 3” (The General Hospital Corporation, priority 2015, dated 2019)

Legend:
[1] = tested on: other structurally similar kinases; conditions: cited from earlier work
GSK-3 [2] = conditions: literature radiotracers; SB-216763 in rodents and non-human primates; cited from earlier work
[3] = Determination of Log D7.4 (1-octanol/PBS shake flask, gamma counting); assay type: physicochemical; conditions: 1-octanol / PBS buffer pH 7.4, n=7
Method: The measurement of lipophilicity was carried out using literature procedure. Purified and reformulated [^11C] labelled compound (1) (˜50 μL) was added to a separating funnel containing PBS buffer (pH 7.4) and 1-octanol (pre-saturated with PBS buffer) (˜20 mL each). The octanol layer was collected and dispensed into 8 centrifuge tubes (2 mL each) containing PBS buffer (2 mL each). The tubes were mixed by vortex for 2 min and then centrifuged for 5 min. Approximately 0.5 mL of the octanol layer and 1.0 mL of the aqueous from each centrifuge tube was then transferred to pre-weighed test tubes (16 in total). The tubes were capped and assayed using an automated gamma counter. The tubes were then uncapped and weighed to determine the total volume of the liquid in each. The log D7.4 of [^11C] labelled compound (1) was determined to be 2.14 (n=7).

GSK-3 [4] = experiment: PET imaging in rhesus monkeys; assay type: in vivo; conditions: for brain penetration and specific binding (in words): PET imaging in animals / non-human primate brain
Method: To determine the in vivo distribution and pharmacokinetic profile of compound (1) in higher species of nonhuman primates, compound (1) was radiolabelled with carbon-11 and the permeability of compound (1) was evaluated in the living brain using positron emission tomography. [^11C] labelled compound (1) was synthesized in 5% uncorrected radiochemical yield (relative to [^11C]CO2) by reaction of the corresponding phenolic precursor in the presence of tetrabutylammonium hydroxide in DMF with [^11C]CH3I with specific activity >2 Ci/μmol (n=15).
Bolus i.v. administration of [^11C]-labelled compound (1) in rhesus monkeys (5-7 mCi) reached a whole brain peak uptake (2 SUV) with fairly uniform brain distribution followed by a fast clearance (1 SUV at 40 min). […] Liang et al., “Discovery of [^11C]PF-367 for neuroimaging of glycogen synthase kinase 3”, J. Nucl. Med., 2015, 56(Supp. 3), 491.

GSK-3 [5] = experiment: PET imaging in rat; assay type: in vivo; conditions: rat (n=1), bolus i.v., at 1-2 min

[11CH3]n1cc(C2=C(c3ccc(Cl)cc3Cl)C(=O)NC2=O)c2ccccc21 [[^11C]SB-216763]
selectivity against other structurally similar kinases (in words) [1]: not selective
brain uptake in vivo (in words) (GSK-3 [2]): good brain uptake

[11CH3]Oc1ccc(-c2ocnc2C(=O)NCCCn2cncn2)cc1Cl [compound (2), N-(3-(1H-1,2,4-Triazol-1-yl)propyl)-5-(3-chloro-4-[^11C]methoxyphenyl)oxazole-4-carboxamide]
logD [3]: 2.14
brain penetration and specific binding (in words) (GSK-3 [4]; listed as 11C-isotopologue of compound (1)): high brain permeability and specificity
brain penetration and specific binding (in words) (GSK-3 [4]; listed as [^11C] labelled compound (1)): confirmed brain penetration and displaceable specific binding
whole brain peak uptake (GSK-3 [4]; rhesus monkeys, bolus i.v., 5-7 mCi, baseline): 2 SUV
brain uptake at 40 min (clearance) (GSK-3 [4]; rhesus monkeys, bolus i.v., baseline, 40 min): 1 SUV
peak uptake (GSK-3 [4]; rhesus monkeys, co-administration with unlabelled compound (1) 0.1 mg/kg): 3.5 SUV
binding at 40 min in all brain regions (GSK-3 [4]; rhesus monkeys, co-administration with unlabelled compound (1) 0.1 mg/kg, 40 min): 0.3 SUV
maximum uptake (GSK-3 [5]): about 1 SUV
